From US6685617B1, “Inhibitors of α4β1 mediated cell adhesion” (Pharmacia & Upjohn Company, priority 1998, dated 2004)

biological target: T1, α4β1 integrin (Jurkat cell adhesion to immobilized CS-1 derived peptide CLHPGEILDVPST) (Homo sapiens, UniProt P05556+P13612); test: Jurkat-CS-1 assay; assay type: cell-based; conditions: Jurkat cells on CS-1 peptide coated plates; read-out: JK/CS-1 (Jurkat CS-1 Assay IC50 value range)
T1 construct: 100 μl of Jurkat cells (2.5×10^6 cells/ml) in DMEM plus BSA; host or cells: Jurkat T-cell line
Experimental: The CS-1 derived peptide, CLHPGEILDVPST, and the scrambled control peptide, CLHGPIELVSDPT, were synthesized on a Beckman 990 synthesizer using t-Boc methodology. The peptides were immobilized onto microtiter plates using the heterobifunctional crosslinker 3-(2-pyridyldithio)propionic acid N-hydroxysuccinimide ester (SPDP) as reported by Pierschbacher et al., Proc. Natl. Acad. USA, 80:1224-1227 (1983). Microtiter plates were coated with 20 μg/ml HSA for 2 hr. at room temperature, washed once with PBS and derivatized with 10 μg/ml SPDP for 1 hr. After washing, 100 μl of a 100 μg/ml cysteine containing peptide solution which had been recently dissolved was added to the wells and allowed to crosslink to the plates overnight at 4° C. Unbound peptide was removed from plates by washing with PBS. To block non-reacted sites, the plates are coated with 100 μl of a 2.5 mg/ml BSA solution in PBS for 1 hr. at 37° C. 100 μl of Jurkat cells (2.5×10^6 cells/ml) in DMEM plus BSA (2.5 mg/ml) was mixed with an appropriate concentration of the compound to be tested and the mixture was added to peptide coated dishes and incubated for 1 hr. at 37° C. Generally 100, 20, 5 and 1.25 μM concentrations of the compound were tested.
Following this incubation the plates were washed once with PBS and the attached cells were fixed with 3% paraformaldehyde in PBS and stained with 0.5% toluidine blue in 3.7% formaldehyde. The cells were stained overnight at room temperature and the optical density at 590 nm of toluidine blue stained cells was determined using a vertical pathway spectrophotometer to quantitate attachment (VMAX Kinetic Microplate Reader, Molecular Devices, Menlo Park, Calif.). This procedure is a modification of a previously published method (Cardarelli et al, J. Biol. Chem., 269:18668-18673 (1994) and Cardarelli et al, Proc. Natl. Acad. Sci. USA, 83:2647-2651 (1986)).

T1 sequence (P13612 34-1032): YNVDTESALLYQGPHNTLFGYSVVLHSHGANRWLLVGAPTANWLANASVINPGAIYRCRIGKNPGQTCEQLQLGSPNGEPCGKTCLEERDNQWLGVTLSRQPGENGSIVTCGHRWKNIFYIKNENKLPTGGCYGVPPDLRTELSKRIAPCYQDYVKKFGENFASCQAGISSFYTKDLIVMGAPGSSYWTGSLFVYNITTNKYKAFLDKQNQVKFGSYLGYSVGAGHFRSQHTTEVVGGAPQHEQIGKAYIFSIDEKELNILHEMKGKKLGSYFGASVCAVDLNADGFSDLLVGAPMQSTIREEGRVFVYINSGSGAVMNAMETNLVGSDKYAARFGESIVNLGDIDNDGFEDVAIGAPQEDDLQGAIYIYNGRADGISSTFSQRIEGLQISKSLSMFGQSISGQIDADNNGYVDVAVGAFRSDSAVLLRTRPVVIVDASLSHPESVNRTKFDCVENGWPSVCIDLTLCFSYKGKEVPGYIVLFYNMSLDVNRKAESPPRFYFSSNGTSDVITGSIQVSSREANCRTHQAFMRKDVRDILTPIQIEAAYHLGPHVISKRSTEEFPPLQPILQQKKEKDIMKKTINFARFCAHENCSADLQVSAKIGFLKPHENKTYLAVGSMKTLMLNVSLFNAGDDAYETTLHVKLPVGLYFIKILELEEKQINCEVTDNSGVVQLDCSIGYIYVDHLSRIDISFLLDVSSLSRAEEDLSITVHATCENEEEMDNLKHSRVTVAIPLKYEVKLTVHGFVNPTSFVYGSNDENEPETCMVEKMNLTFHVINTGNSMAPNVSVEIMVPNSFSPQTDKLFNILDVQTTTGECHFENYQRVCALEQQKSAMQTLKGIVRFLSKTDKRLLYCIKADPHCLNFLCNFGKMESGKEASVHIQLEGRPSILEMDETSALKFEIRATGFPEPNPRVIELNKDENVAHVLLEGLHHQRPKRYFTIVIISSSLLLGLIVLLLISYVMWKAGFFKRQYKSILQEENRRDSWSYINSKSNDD
T1 sequence (P05556 21-798): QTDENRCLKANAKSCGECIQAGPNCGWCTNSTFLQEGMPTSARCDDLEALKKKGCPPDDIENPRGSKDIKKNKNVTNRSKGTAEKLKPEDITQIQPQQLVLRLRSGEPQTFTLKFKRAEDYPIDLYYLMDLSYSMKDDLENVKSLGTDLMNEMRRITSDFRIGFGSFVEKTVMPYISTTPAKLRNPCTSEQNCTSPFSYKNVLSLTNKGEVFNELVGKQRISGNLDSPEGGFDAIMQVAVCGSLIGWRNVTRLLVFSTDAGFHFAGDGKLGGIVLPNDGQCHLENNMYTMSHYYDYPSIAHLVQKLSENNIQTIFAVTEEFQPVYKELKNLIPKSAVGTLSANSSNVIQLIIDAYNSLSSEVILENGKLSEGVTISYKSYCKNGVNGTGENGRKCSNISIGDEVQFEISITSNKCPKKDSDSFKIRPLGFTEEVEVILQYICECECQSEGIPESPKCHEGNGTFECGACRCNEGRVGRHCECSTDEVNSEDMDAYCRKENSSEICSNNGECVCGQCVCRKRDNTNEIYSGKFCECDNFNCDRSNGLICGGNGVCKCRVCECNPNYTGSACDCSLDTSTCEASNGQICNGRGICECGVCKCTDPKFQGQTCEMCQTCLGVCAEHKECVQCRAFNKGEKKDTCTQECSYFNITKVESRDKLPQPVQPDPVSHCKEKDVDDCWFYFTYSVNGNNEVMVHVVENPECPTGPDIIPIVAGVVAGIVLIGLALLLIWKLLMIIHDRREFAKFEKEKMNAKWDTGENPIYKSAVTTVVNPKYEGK

`O=C(Nc1ccc(C[C@H](NC(=O)C2CS[C@H]3CNC(=O)N23)C(=O)O)cc1)c1c(Cl)cccc1Cl` (stereo partly drawn) [Example 279, 4-[(2,6-Dichlorobenzoyl)amino]-N-[[(7aS)-hexahydro-5-oxoimidazo[5,1-b]thiazol-3-yl]carbonyl]-L-phenylalanine] and `O=C(Nc1ccc(C[C@H](NC(=O)C2CSC3COC(=O)N32)C(=O)O)cc1)c1c(Cl)cccc1Cl` (single isomer, unassigned) [Example 282, 4-[(2,6-Dichlorobenzoyl)amino]-N-[(tetrahydro-5-oxo-5H-thiazolo[3,2-c]oxazol-3-yl)carbonyl]-L-phenylalanine] cannot be ordered by IC50: 50 to 750 nM for the first, ≤ 50 nM for the second.

`O=C(O)[C@H](Cc1ccc(OCc2c(Cl)cccc2Cl)cc1)NC(=O)[C@H]1CSCN1C(=O)OC1CCOC1` (stereo partly drawn) [Example 285, (4S)-4-[[[(1S)-1-Carboxy-2-[4-[(2,6-dichlorophenyl)methoxy]phenyl]ethyl]amino]carbonyl]-3-thiazolidinecarboxylic Acid 3-(3-Tetrahydrofuranyl)ester] and `NC(=O)[C@H](Cc1ccc(OCc2c(Cl)cccc2Cl)cc1)NC(=O)[C@H]1CSCN1C(=O)OCCN1CCCC1` [Example 284] fall in the same range of IC50: 50 to 750 nM for the first, 50 to 750 nM for the second.

`CCOC(=O)N1CSC[C@@H]1C(=O)N[C@@H](Cc1ccc(C(=O)Nc2c(Cl)cc(Cl)cc2Cl)cc1)C(=O)O` [Example 278, (4S)-4-[[[(1S)-1-Carboxy-2-[4-[[(2,4,6-trichlorophenyl)amino]carbonyl]phenyl]ethyl]amino]carbonyl]-3-thiazolidinecarboxylic Acid 3-Ethyl Ester] and `CCOC(=O)N1CSC[C@@H]1C(=O)N[C@@H](Cc1ccc(NC(=O)c2ccc(C)cc2)cc1)C(=O)O` [Example 273, (4S)-4-[[[(1S)-1-Carboxy-2-[4-[(4-methylbenzoyl)amino]phenyl]ethyl]amino]carbonyl]-3-thiazolidinecarboxylic Acid 3-Ethyl Ester] cannot be ordered by IC50: 50 to 750 nM for the first, ≥ 750 nM for the second.

`CCOC(=O)N1CSC[C@@H]1C(=O)N[C@@H](Cc1ccc(NC(=O)c2ccc(OC)cc2)cc1)C(=O)O` [Example 272, (4S)-4-[[[(1S)-1-Carboxy-2-[4-[(4-methoxybenzoyl)amino]phenyl]ethyl]amino]carbonyl]-3-thiazolidinecarboxylic Acid 3-Ethyl Ester] and `CCOC(=O)N1CSC[C@@H]1C(=O)N[C@@H](Cc1ccc(NC(=O)CCc2ccccc2)cc1)C(=O)O` [Example 270, (4S)-4-[[[(1S)-1-Carboxy-2-[4-[(3-phenylpropanoyl)amino]phenyl]ethyl]amino]carbonyl]-3-thiazolidinecarboxylic Acid 3-Ethyl ester] fall in the same range of IC50: 50 to 750 nM for the first, 50 to 750 nM for the second.

`NC(=O)[C@H](Cc1ccc(OCc2c(Cl)cccc2Cl)cc1)NC(=O)[C@H]1CSCN1C(=O)OCCN1CCCCC1` [Example 286, (4S)-4-[[[(1S)-2-Amino-1-[[4-[(2,6-dichlorophenyl)methoxy]phenyl]methyl]-2-oxoethyl]amino]carbonyl]-3-thiazolidinecarboxylic Acid 3-[2-(1-Piperidinyl)ethyl]ester] and `NC(=O)[C@H](Cc1ccc(NC(=O)c2c(Cl)cccc2Cl)cc1)NC(=O)[C@H]1CSCN1C(=O)OCCN1CCOCC1` [Example 288, (4S)-4-[[[(1S)-2-Amino-1-[[4-[(2,6-dichlorobenzoyl)amino]phenyl]methyl]-2-oxoethyl]amino]carbonyl]-3-thiazolidinecarboxylic Acid 3-[2-(4-Morpholinyl)ethyl]ester] cannot be ordered by IC50: 50 to 750 nM for the first, ≥ 750 nM for the second.

With `CCOC(=O)N1CSCC1C(=O)N[C@@H](Cc1ccc(NC(=O)c2c(Cl)cccc2Cl)nc1)C(=O)O` (stereo in doubt) [Example 290, [S-(R*,R*)]-4-[[[1-Carboxy-2-[2-[(2,6-dichlorobenzoyl)amino]-5-pyridinyl]ethyl]amino]carbonyl]-3-thiazolidinecarboxylic Acid Ethyl Ester] the IC50 was ≤ 50 nM.
